Where two headings read alike, the source gives them in different places.
Columns and labels:
in vivo = format: in vivo, mice; conditions: for concentration at 24 h: tumor tissue 24 h after administration, read-out: tumor accumulation of AZD3965
Description: Mouse plasma were collected and added into 1 mL of methanol/water mixture (80/20, v/v) at 0.5, 6 and 24 h after treatment by different regimens. Tissues (heart, liver, kidney and tumor) were collected at 24 h. About 100 mg of tissues were removed, and the wet weight was recorded. The tissues were homogenized in 1 mL of methanol/water mixture (80/20, v/v). The plasma and tissue mixture were centrifuged and the supernatant was collected respectively, dried by a SpeedVac, then dissolved in methanol and measured by HPLC.

[1] = Toxicity analysis (body weight, cTnI, ALT, AST) in tumor-bearing mice; format: in vivo
Description: Six to eight week old mice (n=5-7 for each group) were injected subcutaneously with TC-1 (2×10^5) or B16F10 (2×10^5) cells into the right flank. […] Some groups were intraperitoneally injected with 200 μg checkpoint inhibitors (anti-mPD-1, BioXcell, BE0146) for comparison or synergy evaluation. Tumor growth was subsequently measured twice a week using a digital caliper and calculated as 0.5×length×width×height by blinded investigators. Mouse weight was also recorded. Mice were sacrificed when the tumor volumes reached 1,500 mm^3.
Blood of different mouse groups were collected after 4 h. Then alanine transaminase activity assay (Abcam, ab105134), aspartate aminotransferase activity assay (Abcam, ab105135), and mouse cardiac troponin-I ELISA analysis (Life Diagnostics, Inc., Cat. No. CTNI-1-HS) were performed.

TC-1 cells = test: Measurement of lactate and pH in the cell culture medium; format: cell-based; conditions: 1 μM (effective) AZD3965, 24 h, added directly (intact NPs), vs untreated control
Description: All animal procedures were performed with ethical compliance and approval by the Institutional Animal Care and Use Committee at the University of Texas Southwestern Medical Center. Cells were cultured in DMEM medium (10% fetal bovine serum, 100 U/mL penicillin G sodium and 100 μg/mL streptomycin (Pen/Strep), non-essential amino acids, and 20 μM β-mercaptoethanol (β-ME)) at 37° C. in 5% CO2 and the normal level of O2.
For lactate measurement, TC-1 cells were cultured in normal DMEM medium as described above with different drugs: free AZD3965 (1 uM), intact AZD-UPS NPs (1 uM effective AZD3965 concentration), or pretreatment of AZD-UPS NPs in pH 6.0 buffer for pH-activated drug release followed by addition into the cell culture medium. After 24 h incubation, lactate concentration was measured by NOVA BioProfile 4. For pH measurement, TC-1 cells were cultured in DMEM medium (D5030, Sigma) without NaHCO3, and in incubator without CO2 for 24 h, followed by measurement of medium pH.

TC-1 tumor = test: Tumor growth and survival, TC-1 tumor model; format: in vivo; conditions: TC-1 model, day 27
Description: Six to eight week old mice (n=5-7 for each group) were injected subcutaneously with TC-1 (2×10^5) or B16F10 (2×10^5) cells into the right flank. Animals were treated by 50 mg/kg AZD3965 (administered twice daily by oral gavage for a total of 7 days), or by AZD-UPS NPs (containing 2 mg/kg AZD3965, IV injected at days 7, 10 and 13). Some groups were intraperitoneally injected with 200 μg checkpoint inhibitors (anti-mPD-1, BioXcell, BE0146) for comparison or synergy evaluation. Tumor growth was subsequently measured twice a week using a digital caliper and calculated as 0.5×length×width×height by blinded investigators. Mouse weight was also recorded. Mice were sacrificed when the tumor volumes reached 1,500 mm^3.

[2] = oral administration 50 mg/kg for 7 days, serum 4 h after last treatment, vs untreated

In the case of `Cc1[nH]nc(C(F)(F)F)c1Cc1sc2c(c1C(=O)N1C[C@](C)(O)CO1)c(=O)n(C)c(=O)n2C(C)C` [AZD3965], the clearance from plasma (in vivo; intravenous injection 2 mg/kg) is reported as “rapid clearance of the drug”, the AUC (in vivo; mouse, intravenous 2 mg/kg AZD3965, plasma, read-out: area under the concentration-time (AUC) value) is reported as 5400 ± 2500 ng·h/mL and the concentration at 24 h (in vivo; mouse, intravenous 2 mg/kg) is reported as 290 ± 120 ng/g. The concentration at 24 h (in vivo; mouse, oral administration 100 mg/kg (50-fold higher dose)) was 4000 ± 3500 ng/g, the “peak drug plasma concentration” value (in vivo; oral administration 100 mg/kg, at 30 min, TC-1 tumor-bearing mice) was 47 ± 27 µg/mL and the “level of alanine aminotransferase (ALT)” value [1, 2] was “significantly increased”. The “level of aspartate aminotransferase (AST)” value [1, 2] was “significantly increased”, the “level of cardiac troponin-I (cTnI)” value [1, 2] was “significantly increased” and the body weight ([1]; oral administration, two weeks of treatment) was “did not cause weight loss”. For the same compound, the “lactate secretion into culture medium” value (TC-1 cells) was “significantly decreased the secretion of lactate”, the “pH change of culture medium” value (TC-1 cells) was “inhibited the lowering of pH in the medium” and the tumor volume (TC-1 tumor; oral 50 mg/kg twice daily for 7 days, p=0.09 vs untreated) was 9.2±4.1×10^2 mm^3. For the same compound, the tumor volume (TC-1 tumor; oral AZD3965 in combination with anti-PD1) was 8.0±3.1×10^2 mm^3.
